What follows are compounds tested against Calcium/calmodulin-dependent protein kinase type 1D (Homo sapiens) (UniProt Q8IU85).
Chain of Calcium/calmodulin-dependent protein kinase type 1D (Homo sapiens) (Q8IU85 whole entry, looked up): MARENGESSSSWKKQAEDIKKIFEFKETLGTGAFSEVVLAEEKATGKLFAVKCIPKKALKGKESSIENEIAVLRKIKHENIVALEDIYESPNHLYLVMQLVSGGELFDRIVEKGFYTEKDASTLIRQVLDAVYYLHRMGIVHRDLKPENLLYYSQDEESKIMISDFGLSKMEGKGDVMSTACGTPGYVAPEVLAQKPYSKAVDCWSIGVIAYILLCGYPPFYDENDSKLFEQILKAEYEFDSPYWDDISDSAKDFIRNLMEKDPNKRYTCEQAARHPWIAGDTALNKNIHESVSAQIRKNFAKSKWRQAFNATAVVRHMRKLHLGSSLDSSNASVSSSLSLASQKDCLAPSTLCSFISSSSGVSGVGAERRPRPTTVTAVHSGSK

ΔTm [°C]	SMILES
0.1	O=c1sn(Cc2ccccc2)c(=S)n1Cc1ccccc1
1.1	O=Nc1c(-c2c(O)[nH]c3ccccc23)[nH]c2ccccc12

Each compound was assayed against Calcium/calmodulin-dependent protein kinase type II subunit delta (Homo sapiens) (UniProt Q13557).
Chain of Calcium/calmodulin-dependent protein kinase type II subunit delta (Homo sapiens) (Q13557 whole entry): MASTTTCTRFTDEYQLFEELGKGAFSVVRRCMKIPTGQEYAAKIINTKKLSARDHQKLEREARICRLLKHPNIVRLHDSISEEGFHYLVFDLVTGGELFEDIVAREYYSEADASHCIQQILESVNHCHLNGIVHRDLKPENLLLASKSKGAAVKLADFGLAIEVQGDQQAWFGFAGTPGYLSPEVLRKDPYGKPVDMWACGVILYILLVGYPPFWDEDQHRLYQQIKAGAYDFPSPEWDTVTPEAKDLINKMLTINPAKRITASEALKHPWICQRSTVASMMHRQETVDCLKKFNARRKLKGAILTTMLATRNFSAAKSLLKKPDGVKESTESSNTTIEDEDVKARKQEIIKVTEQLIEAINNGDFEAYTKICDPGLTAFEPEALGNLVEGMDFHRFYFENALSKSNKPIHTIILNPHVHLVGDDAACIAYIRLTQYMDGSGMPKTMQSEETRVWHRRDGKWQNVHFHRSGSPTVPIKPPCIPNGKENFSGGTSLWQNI

ΔTm [°C]	SMILES
0.6	O=c1sn(Cc2ccccc2)c(=S)n1Cc1ccccc1
2.8	O=Nc1c(-c2c(O)[nH]c3ccccc23)[nH]c2ccccc12

Each compound was assayed against Calcium/calmodulin-dependent protein kinase type II subunit gamma (Homo sapiens) (UniProt Q13555).
Chain of Calcium/calmodulin-dependent protein kinase type II subunit gamma (Homo sapiens) (Q13555 whole entry): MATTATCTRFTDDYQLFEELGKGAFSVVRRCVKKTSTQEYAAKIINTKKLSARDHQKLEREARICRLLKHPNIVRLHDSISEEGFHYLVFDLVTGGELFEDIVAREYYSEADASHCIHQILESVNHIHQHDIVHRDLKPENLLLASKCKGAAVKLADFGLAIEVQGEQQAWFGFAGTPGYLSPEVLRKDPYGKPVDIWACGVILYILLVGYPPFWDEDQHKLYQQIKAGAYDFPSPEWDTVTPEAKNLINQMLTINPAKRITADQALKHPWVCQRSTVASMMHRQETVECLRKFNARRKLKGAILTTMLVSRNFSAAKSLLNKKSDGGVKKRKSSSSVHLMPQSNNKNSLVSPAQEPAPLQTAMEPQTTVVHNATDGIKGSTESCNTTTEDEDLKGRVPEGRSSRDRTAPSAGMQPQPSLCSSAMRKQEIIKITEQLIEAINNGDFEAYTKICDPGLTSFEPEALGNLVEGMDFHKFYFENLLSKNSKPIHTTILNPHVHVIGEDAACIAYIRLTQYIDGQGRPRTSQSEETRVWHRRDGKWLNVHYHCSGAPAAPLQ

ΔTm [°C]	SMILES
0.4	O=c1sn(Cc2ccccc2)c(=S)n1Cc1ccccc1
2.3	O=Nc1c(-c2c(O)[nH]c3ccccc23)[nH]c2ccccc12

These compounds were tested against Cyclin-dependent kinase 2 (Homo sapiens, UniProt P24941).

ΔTm [°C]	SMILES
0.3	O=c1sn(Cc2ccccc2)c(=S)n1Cc1ccccc1
6.6	O=Nc1c(-c2c(O)[nH]c3ccccc23)[nH]c2ccccc12

What follows are compounds tested against Dual specificity protein kinase CLK2 (Homo sapiens) (UniProt P49760).
Chain of Dual specificity protein kinase CLK2 (Homo sapiens) (P49760 whole entry, looked up): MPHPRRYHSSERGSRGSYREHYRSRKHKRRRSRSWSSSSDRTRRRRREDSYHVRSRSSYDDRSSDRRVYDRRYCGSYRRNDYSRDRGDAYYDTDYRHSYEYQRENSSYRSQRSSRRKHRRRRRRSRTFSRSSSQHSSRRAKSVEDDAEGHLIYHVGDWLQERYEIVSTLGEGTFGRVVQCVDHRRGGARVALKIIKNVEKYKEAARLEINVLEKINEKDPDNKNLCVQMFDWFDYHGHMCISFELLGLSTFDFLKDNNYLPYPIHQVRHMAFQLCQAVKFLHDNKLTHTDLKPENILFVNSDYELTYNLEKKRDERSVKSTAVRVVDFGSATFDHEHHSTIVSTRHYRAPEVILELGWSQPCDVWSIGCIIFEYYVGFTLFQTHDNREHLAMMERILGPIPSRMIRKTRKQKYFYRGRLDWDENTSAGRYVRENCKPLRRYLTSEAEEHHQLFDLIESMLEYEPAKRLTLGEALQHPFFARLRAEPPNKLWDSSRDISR

ΔTm [°C]	SMILES
-0.2	O=c1sn(Cc2ccccc2)c(=S)n1Cc1ccccc1
1.5	O=Nc1c(-c2c(O)[nH]c3ccccc23)[nH]c2ccccc12

These compounds were tested against Death-associated protein kinase 3 (Homo sapiens) (UniProt O43293).

SMILES	ΔTm [°C]
O=c1sn(Cc2ccccc2)c(=S)n1Cc1ccccc1	-0.2
O=Nc1c(-c2c(O)[nH]c3ccccc23)[nH]c2ccccc12	1.2

Each compound was assayed against T1, Myotonin-protein kinase (Homo sapiens) (UniProt Q09013).
T1 sequence (whole entry): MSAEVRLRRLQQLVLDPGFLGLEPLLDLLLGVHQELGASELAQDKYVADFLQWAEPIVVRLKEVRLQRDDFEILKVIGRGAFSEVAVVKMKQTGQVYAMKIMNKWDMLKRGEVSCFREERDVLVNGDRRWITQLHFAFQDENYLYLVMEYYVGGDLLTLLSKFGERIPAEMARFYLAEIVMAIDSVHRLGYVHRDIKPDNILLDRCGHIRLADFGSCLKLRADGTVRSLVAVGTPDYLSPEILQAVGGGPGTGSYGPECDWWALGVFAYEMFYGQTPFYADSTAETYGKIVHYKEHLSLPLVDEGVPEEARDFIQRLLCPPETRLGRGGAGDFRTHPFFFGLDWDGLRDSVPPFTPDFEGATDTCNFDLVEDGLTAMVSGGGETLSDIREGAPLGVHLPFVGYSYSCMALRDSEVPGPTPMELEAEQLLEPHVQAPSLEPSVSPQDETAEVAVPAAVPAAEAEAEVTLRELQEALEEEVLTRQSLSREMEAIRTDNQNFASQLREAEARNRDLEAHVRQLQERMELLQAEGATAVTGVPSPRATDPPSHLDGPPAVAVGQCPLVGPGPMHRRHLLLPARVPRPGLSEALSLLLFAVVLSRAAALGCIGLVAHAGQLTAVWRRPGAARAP

ΔTm [°C]	SMILES
0.5	O=c1sn(Cc2ccccc2)c(=S)n1Cc1ccccc1
-0.3	O=Nc1c(-c2c(O)[nH]c3ccccc23)[nH]c2ccccc12

Each compound was assayed against Dual specificity mitogen-activated protein kinase kinase 2 (Homo sapiens, UniProt P36507).
Chain of Dual specificity mitogen-activated protein kinase kinase 2 (P36507 whole entry): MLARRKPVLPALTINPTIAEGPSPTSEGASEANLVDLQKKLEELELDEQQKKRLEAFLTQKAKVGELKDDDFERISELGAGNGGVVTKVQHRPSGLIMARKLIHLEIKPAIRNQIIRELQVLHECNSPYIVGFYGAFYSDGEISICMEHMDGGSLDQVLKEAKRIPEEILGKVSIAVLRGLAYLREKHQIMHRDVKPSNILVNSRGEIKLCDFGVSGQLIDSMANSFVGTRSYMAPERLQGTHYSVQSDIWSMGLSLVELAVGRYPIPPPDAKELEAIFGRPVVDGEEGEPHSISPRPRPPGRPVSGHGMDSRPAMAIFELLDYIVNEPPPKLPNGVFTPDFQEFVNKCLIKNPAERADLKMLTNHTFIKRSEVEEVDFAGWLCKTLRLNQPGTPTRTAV

ΔTm [°C]	SMILES
0	O=c1sn(Cc2ccccc2)c(=S)n1Cc1ccccc1
4.4	O=Nc1c(-c2c(O)[nH]c3ccccc23)[nH]c2ccccc12

The compounds below were run against Mitogen-activated protein kinase 11 (Homo sapiens, UniProt Q15759).

ΔTm [°C]	SMILES
-0.3	O=c1sn(Cc2ccccc2)c(=S)n1Cc1ccccc1
0.7	O=Nc1c(-c2c(O)[nH]c3ccccc23)[nH]c2ccccc12

Each compound was assayed against Serine/threonine-protein kinase 26 (Homo sapiens) (UniProt Q9P289).
Chain of Serine/threonine-protein kinase 26 (Homo sapiens) (Q9P289 2-416 limits assumed): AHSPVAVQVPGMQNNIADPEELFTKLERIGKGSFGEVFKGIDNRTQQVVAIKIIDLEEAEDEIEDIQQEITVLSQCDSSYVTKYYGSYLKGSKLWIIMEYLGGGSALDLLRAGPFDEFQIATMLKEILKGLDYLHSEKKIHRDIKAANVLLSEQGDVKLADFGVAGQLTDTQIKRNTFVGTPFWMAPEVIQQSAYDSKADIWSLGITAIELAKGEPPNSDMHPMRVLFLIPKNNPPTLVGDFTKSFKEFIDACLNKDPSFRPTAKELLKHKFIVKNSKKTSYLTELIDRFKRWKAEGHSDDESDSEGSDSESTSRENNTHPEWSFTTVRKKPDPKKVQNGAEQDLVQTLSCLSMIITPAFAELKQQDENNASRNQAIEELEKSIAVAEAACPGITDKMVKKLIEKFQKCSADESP

ΔTm [°C]	SMILES
0.4	O=c1sn(Cc2ccccc2)c(=S)n1Cc1ccccc1
2.5	O=Nc1c(-c2c(O)[nH]c3ccccc23)[nH]c2ccccc12

What follows are compounds tested against Serine/threonine-protein kinase OSR1 (Homo sapiens) (UniProt O95747).

ΔTm [°C]	SMILES
0.1	O=c1sn(Cc2ccccc2)c(=S)n1Cc1ccccc1
1.7	O=Nc1c(-c2c(O)[nH]c3ccccc23)[nH]c2ccccc12

These compounds were tested against Serine/threonine-protein kinase PAK 5 (Homo sapiens) (UniProt Q9P286).
Chain of Serine/threonine-protein kinase PAK 5 (Homo sapiens) (Q9P286 whole entry, looked up): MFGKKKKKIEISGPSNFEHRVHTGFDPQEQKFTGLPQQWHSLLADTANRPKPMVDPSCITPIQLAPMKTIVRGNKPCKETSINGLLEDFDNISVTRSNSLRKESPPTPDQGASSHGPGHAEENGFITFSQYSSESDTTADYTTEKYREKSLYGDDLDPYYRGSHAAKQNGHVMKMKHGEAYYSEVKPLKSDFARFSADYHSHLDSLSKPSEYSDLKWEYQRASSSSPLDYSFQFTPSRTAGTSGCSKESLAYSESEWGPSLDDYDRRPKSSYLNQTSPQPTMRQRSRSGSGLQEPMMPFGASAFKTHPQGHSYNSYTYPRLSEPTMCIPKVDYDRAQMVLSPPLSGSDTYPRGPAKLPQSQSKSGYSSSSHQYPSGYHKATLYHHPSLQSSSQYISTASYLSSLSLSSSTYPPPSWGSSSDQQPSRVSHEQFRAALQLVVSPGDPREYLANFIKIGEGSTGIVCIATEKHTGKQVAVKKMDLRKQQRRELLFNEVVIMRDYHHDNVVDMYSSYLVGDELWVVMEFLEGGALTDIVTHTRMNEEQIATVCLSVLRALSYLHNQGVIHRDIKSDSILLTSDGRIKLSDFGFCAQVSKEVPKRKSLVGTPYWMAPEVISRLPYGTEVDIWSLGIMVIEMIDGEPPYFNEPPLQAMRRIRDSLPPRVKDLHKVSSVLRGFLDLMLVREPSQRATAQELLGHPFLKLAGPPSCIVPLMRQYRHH

ΔTm [°C]	SMILES
0.5	O=c1sn(Cc2ccccc2)c(=S)n1Cc1ccccc1
2.6	O=Nc1c(-c2c(O)[nH]c3ccccc23)[nH]c2ccccc12

These compounds were tested against Serine/threonine-protein kinase pim-1 (Homo sapiens) (UniProt P11309).
Chain of Serine/threonine-protein kinase pim-1 (Homo sapiens) (P11309 whole entry, looked up): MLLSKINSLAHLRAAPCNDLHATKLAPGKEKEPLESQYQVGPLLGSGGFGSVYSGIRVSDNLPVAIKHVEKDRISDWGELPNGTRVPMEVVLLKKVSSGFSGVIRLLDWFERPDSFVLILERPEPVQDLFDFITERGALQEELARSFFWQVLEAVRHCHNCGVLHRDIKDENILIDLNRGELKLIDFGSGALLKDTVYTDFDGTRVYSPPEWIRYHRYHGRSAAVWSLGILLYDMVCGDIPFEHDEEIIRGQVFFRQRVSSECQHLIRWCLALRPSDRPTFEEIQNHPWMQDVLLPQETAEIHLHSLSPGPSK

ΔTm [°C]	SMILES
-0.2	O=c1sn(Cc2ccccc2)c(=S)n1Cc1ccccc1
2	O=Nc1c(-c2c(O)[nH]c3ccccc23)[nH]c2ccccc12

Each compound was assayed against Serine/threonine-protein kinase pim-2 (Homo sapiens, UniProt Q9P1W9).

ΔTm [°C]	SMILES
-0.2	O=c1sn(Cc2ccccc2)c(=S)n1Cc1ccccc1
0	O=Nc1c(-c2c(O)[nH]c3ccccc23)[nH]c2ccccc12

The compounds below were run against Serine/threonine-protein kinase pim-3 (Homo sapiens) (UniProt Q86V86).

ΔTm [°C]	SMILES
0.3	O=c1sn(Cc2ccccc2)c(=S)n1Cc1ccccc1
6.4	O=Nc1c(-c2c(O)[nH]c3ccccc23)[nH]c2ccccc12

What follows are compounds tested against Ribosomal protein S6 kinase alpha-3 (Homo sapiens) (UniProt P51812).
Chain of Ribosomal protein S6 kinase alpha-3 (Homo sapiens) (P51812 whole entry): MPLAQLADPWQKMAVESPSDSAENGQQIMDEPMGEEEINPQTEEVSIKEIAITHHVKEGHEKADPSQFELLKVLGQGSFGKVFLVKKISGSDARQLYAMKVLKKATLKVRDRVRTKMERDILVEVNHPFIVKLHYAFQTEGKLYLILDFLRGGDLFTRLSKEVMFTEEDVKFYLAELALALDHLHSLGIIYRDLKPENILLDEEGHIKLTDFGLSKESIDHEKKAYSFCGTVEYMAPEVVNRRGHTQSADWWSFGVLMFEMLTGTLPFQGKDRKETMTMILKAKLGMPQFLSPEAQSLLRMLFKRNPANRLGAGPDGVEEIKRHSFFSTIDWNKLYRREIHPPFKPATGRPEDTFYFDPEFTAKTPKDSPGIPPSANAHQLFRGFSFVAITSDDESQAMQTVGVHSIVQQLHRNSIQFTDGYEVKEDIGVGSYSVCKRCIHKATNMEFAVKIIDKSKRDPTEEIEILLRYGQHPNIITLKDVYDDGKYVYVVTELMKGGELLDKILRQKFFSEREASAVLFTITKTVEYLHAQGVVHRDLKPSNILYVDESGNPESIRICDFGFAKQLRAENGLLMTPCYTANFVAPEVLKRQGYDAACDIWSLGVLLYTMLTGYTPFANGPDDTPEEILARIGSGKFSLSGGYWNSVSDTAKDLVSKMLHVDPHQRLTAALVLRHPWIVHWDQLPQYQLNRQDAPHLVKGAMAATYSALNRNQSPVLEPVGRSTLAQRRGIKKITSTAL

ΔTm [°C]	SMILES
-0.4	O=c1sn(Cc2ccccc2)c(=S)n1Cc1ccccc1
0	O=Nc1c(-c2c(O)[nH]c3ccccc23)[nH]c2ccccc12

The compounds below were run against T2, Serine/threonine-protein kinase 17A (Homo sapiens) (UniProt Q9UEE5).
T2 sequence (whole entry): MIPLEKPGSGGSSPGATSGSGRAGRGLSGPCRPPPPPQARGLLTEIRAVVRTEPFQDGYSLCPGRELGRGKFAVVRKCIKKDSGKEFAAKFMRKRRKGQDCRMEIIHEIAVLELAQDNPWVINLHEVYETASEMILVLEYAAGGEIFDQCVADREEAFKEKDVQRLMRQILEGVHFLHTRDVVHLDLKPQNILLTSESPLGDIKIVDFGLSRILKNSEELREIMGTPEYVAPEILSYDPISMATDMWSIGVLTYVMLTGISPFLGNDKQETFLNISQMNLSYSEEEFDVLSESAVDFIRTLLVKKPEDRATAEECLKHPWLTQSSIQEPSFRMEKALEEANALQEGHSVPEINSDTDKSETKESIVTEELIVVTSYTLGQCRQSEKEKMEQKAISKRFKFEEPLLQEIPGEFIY

ΔTm [°C]	SMILES
0.2	O=c1sn(Cc2ccccc2)c(=S)n1Cc1ccccc1
8.9	O=Nc1c(-c2c(O)[nH]c3ccccc23)[nH]c2ccccc12

Target: Serine/threonine-protein kinase 26 (Homo sapiens) (UniProt Q9P289)
Remark: another data set of the same source

ΔTm [°C]	SMILES
0.5	O=c1sn(Cc2ccccc2)c(=S)n1Cc1ccccc1
2.7	O=Nc1c(-c2c(O)[nH]c3ccccc23)[nH]c2ccccc12

These compounds were tested against T3, Lymphokine-activated killer T-cell-originated protein kinase (Homo sapiens) (UniProt Q96KB5).
T3 sequence (whole entry): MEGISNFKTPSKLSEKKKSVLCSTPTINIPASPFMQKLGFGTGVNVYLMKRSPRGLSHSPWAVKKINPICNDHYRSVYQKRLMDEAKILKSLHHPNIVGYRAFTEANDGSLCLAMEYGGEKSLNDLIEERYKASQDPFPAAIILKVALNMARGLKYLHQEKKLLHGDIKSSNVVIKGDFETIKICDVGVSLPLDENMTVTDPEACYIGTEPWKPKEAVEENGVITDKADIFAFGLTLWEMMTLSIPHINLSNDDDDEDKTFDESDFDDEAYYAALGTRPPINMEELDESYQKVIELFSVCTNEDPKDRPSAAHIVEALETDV

SMILES	ΔTm [°C]
O=c1sn(Cc2ccccc2)c(=S)n1Cc1ccccc1	-0.4
O=Nc1c(-c2c(O)[nH]c3ccccc23)[nH]c2ccccc12	0.5

The compounds below were run against T4, Serine/threonine-protein kinase VRK1 (Homo sapiens) (UniProt Q99986).
T4 sequence (whole entry): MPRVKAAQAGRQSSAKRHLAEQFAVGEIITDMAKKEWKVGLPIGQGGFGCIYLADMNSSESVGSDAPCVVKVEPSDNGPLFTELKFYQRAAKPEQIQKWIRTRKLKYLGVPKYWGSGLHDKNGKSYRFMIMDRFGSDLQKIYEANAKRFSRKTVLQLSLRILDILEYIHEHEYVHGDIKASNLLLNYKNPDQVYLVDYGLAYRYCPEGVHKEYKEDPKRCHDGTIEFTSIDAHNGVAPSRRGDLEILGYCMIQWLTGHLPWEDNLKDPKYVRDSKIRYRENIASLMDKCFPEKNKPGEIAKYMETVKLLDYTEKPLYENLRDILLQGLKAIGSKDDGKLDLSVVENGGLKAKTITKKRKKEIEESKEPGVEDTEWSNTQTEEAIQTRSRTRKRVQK

ΔTm [°C]	SMILES
0.6	O=c1sn(Cc2ccccc2)c(=S)n1Cc1ccccc1
0.1	O=Nc1c(-c2c(O)[nH]c3ccccc23)[nH]c2ccccc12

These compounds were tested against Serine/threonine-protein kinase 25 (Homo sapiens) (UniProt O00506).

ΔTm [°C]	SMILES
0.5	O=c1sn(Cc2ccccc2)c(=S)n1Cc1ccccc1
3.8	O=Nc1c(-c2c(O)[nH]c3ccccc23)[nH]c2ccccc12
